≈ marks a conversion by molar mass, not a printed value. Entries after “also recorded” stand apart in the source; their conditions may differ.
Tests used:
B16 melancarcinoma = test: B1 system against B16 melancarcinoma in mice (NCI Protocol 1.300); type: in vivo; conditions: i.p. once a day for 9 days, vehicle Klucel, male B6C3F1 mice
Description: Trewiasine was also evaluated in the B1 system against B16 melancarcinoma in mice. This assay is conducted in accordance with the NCI Protocol 1.300 described in Geran et al., supra. Starting 24 hours after the tumor implantation, predetermined doses of the compound were injected intraperitoneally once a day for 9 days. The results are reported in Table V below as the percent T/C.

[1] = tested on: lymphocytic leukemia P388; test: PS system against lymphocytic leukemia P388 in mice (NCI Protocol 1.200); type: in vivo; conditions: i.p. once a day for 9 days
Description: Another indication of fraction activity is the effectiveness in the PS system against lymphocytic leukemia P388 in mice. These assays are conducted according to the NCI Protocol 1.200 described in Geran et al., supra. Starting 24 hours after the tumor implantation, previously determined doses of each compound were injected intraperitoneally once a day for 9 days. Survival time of treated leukemic mice is compared to that of untreated mice (T/C×100). A T/C value of 100% indicates no activity. A T/C value greater than 100% means that the treated mice are surviving longer than the control mice. A compound giving a T/C value greater than 125% is indicative of activity as defined by the NCI Protocols, above.

[2] = tested on: cultivated cells of human epidermoid carcinoma of the mouth (KB); test: KB Cell Culture Screen (NCI Protocol 1.600); type: cell-based; conditions: for IC50: Homo sapiens, KB, 72 h, 3 days after drug addition, activity indicated for ED50 ≤30 μg./ml., read-out: ED50 (dose that inhibits growth to 50% of control growth)
Description: The KB Cell Culture Screen used in guiding the above-described fractionations was conducted in accordance with the National Cancer Institute (NCI) Protocol 1.600 [Geran et al., Cancer Chemother. Rep., Part 3, 3:17 (1972)] in which the effectiveness of the test compounds against cultivated cells of human epidermoid carcinoma of the mouth was evaluated. The results of this procedure are expressed as the dose that inhibits growth to 50% of control growth by 3 days after drug addition. Such a dose is referred to as ED50 and activity is indicated for ED50 levels of ≤30 μg./ml. The smaller the ED50 level, the more cytotoxic the test material. The activities of the crystallized compounds isolated above are reported below in Table III.

[3] = tested on: lymphocytic leukemia P388; conditions: Wani et al. 1973; cited from earlier work

**Q.** Which results are given for `COc1cc2cc(c1Cl)N(C)C(=O)CC(OC(=O)C(C)N(C)C(=O)C(C)C)C1(C)OC1C(C)C1CC(O)(NC(=O)O1)C(OC)C=CC=C(C)C2OC` (stereo not drawn) [trewiasine, 15-methoxymaytanbutine]?
**A.** T/C (B16 melancarcinoma; 1.00 μg./kg./inj.): 133%; T/C (B16 melancarcinoma; 2.00 μg./kg./inj.): 140%; T/C (B16 melancarcinoma; 4.00 μg./kg./inj.): 157%; T/C (B16 melancarcinoma; 8.00 μg./kg./inj.): 185%; T/C (B16 melancarcinoma; 16.00 μg./kg./inj.): 172%; T/C (B16 melancarcinoma; 32.00 μg./kg./inj.): 183%; T/C ([1]; 4.00 μg./kg./inj., vehicle Klucel, female CDF1 mice): 163%; T/C ([1]; 8.00 μg./kg./inj., vehicle Klucel, female CDF1 mice): 140%; T/C ([1]; 16.00 μg./kg./inj., vehicle Klucel, female CDF1 mice): 154%; T/C ([1]; 32.00 μg./kg./inj., vehicle Klucel, female CDF1 mice): 128%; T/C ([1]; 64.00 μg./kg./inj., vehicle Klucel, female CDF1 mice): 91%; IC50 [2]: 0.2 ng/mL (≈ 0.267 nM); cytotoxicity relative to that reported by Kupchan for other maytansinoids ([2]; KB system, compared with maytansine, maytanbutine and similar compounds): one or more orders of magnitude less; also recorded: at least one order of magnitude less

**Q.** Which “activity against lymphocytic leukemia P388” value [3] does the source give for `COc1cc2cc(c1Cl)N(C)C(=O)CC(OC(=O)C(C)N(C)C(=O)C(C)C)C1(C)OC1C(C)C1CC(O)(NC(=O)O1)C(OC)C=CC=C(C)C2O` (stereo not drawn) [colubrinol] here?
**A.** activity against lymphocytic leukemia P388 at the microgram per kilogram level

**Q.** With `COc1cc2cc(c1Cl)N(C)C(=O)CC(OC(=O)C(C)NC(=O)C(C)C)C1(C)OC1C(C)C1CC(O)(NC(=O)O1)C(OC)C=CC=C(C)C2OC` (stereo not drawn) [demethyltrewiasine] as the molecule, how does the IC50 [2] read?
**A.** < 10 ng/mL

**Q.** Which T/C ([1]; 4.00 μg./kg./inj., vehicle biological saline, male CDF1 mice) does the source give for `C=C(C)C(=O)N(C)C(C)C(=O)OC1CC(=O)N(C)c2cc(cc(OC)c2Cl)C(OC)C(C)=CC=CC(OC)C2(O)CC(OC(=O)N2)C(C)C2OC12C` (stereo not drawn) [dehydrotrewiasine] here?
**A.** 120%

**Q.** And the T/C ([1]; 8.00 μg./kg./inj., vehicle biological saline, male CDF1 mice)?
**A.** 127%

**Q.** And the T/C ([1]; 16.00 μg./kg./inj., vehicle biological saline, male CDF1 mice)?
**A.** 120%

**Q.** And the T/C ([1]; 32.00 μg./kg./inj., vehicle biological saline, male CDF1 mice)?
**A.** 145%

**Q.** And the IC50 [2]?
**A.** < 10 ng/mL

**Q.** With `COc1cc2cc(c1Cl)N(C)C(=O)CC(OC(=O)C(C)N(C)C(=O)C(C)C)C1(C)OC1C(C)C1CC(O)(NC(=O)O1)C(OC)C=CC=C(C)C2OC(C)=O` (stereo not drawn) [colubrinol acetate] as the molecule, how does the “activity against lymphocytic leukemia P388” value [3] read?
**A.** activity against lymphocytic leukemia P388 at the microgram per kilogram level

Reference: US4313946A, “Chemotherapeutically active maytansinoids from Trewia nudiflora” (priority 1981, dated 1982)
